From BindingDB's records for doi:10.1021/jm200304y (Kyoto University, 2011)

test: Inhibition of SREBP2 activation expressed in CHO-K1 cells co-transfected with pSRE-Luc plasmid assessed as inhibition of luciferase expression after 20 hrs by luciferase reporter gene assay

**Q.** With CCCc1cc(-c2nc(-c3cccs3)cs2)ccn1 as the compound, how does the IC50 read?
**A.** 14.7 µM

**Q.** For Cc1ccc(-c2csc(-c3ccccc3)n2)cc1, which IC50 is on record?
**A.** 18.6 µM

**Q.** For CCCc1cc(-c2ccc(-c3ccc(C)cc3)cc2)ccn1, which IC50 is on record?
**A.** > 30 µM

**Q.** Which IC50 does the source give for CCc1cc(-c2nc(-c3ccc(C)cc3)cs2)ccn1 here?
**A.** 6.8 µM

**Q.** For Cc1ccc(-c2csc(-c3ccncc3)n2)cc1, which IC50 is on record?
**A.** > 30 µM

**Q.** For CCCc1cc(-c2nc(-c3ccccc3)cs2)ccn1, which IC50 is on record?
**A.** 23 µM

**Q.** Which IC50 does the source give for CCCc1cc(-c2nc(-c3ccc(F)cc3)cs2)ccn1 here?
**A.** 12.4 µM

**Q.** With CCCc1cc(-c2nc(-c3ccc(Br)cc3)cs2)ccn1 as the compound, how does the IC50 read?
**A.** 9.8 µM

**Q.** For CCCc1cc(-c2nc(-c3ccc(OC)cc3)cs2)ccn1, which IC50 is on record?
**A.** 13 µM

**Q.** Which IC50 does the source give for CCCc1cc(-c2nc(-c3cccc(OC)c3)cs2)ccn1 here?
**A.** 10.2 µM

**Q.** For CCCc1cc(-c2nc(-c3ccccc3OC)cs2)ccn1, which IC50 is on record?
**A.** 3.2 µM

**Q.** For CCCc1cc(-c2nc(-c3ccc(O)cc3)cs2)ccn1, which IC50 is on record?
**A.** 9.6 µM

**Q.** With CCCc1cc(-c2nc(-c3cccc(O)c3)cs2)ccn1 as the compound, how does the IC50 read?
**A.** 9.5 µM

**Q.** With CCCc1cc(-c2nc(-c3ccccc3O)cs2)ccn1 as the compound, how does the IC50 read?
**A.** 14.4 µM

**Q.** For CCCc1cc(-c2nc(-c3ccc(N)cc3)cs2)ccn1, which IC50 is on record?
**A.** 8.6 µM

**Q.** For CCCc1cc(-c2nc(-c3ccc(NC(C)C)cc3)cs2)ccn1, which IC50 is on record?
**A.** 2.8 µM

**Q.** For CCCc1cc(-c2nc(-c3ccc(NCc4ccccc4)cc3)cs2)ccn1, which IC50 is on record?
**A.** 3 µM

**Q.** Which IC50 does the source give for CCCc1cc(-c2nc(-c3ccc(NCC4CC4)cc3)cs2)ccn1 here?
**A.** 4.9 µM

**Q.** With CCCc1cc(-c2nc(-c3ccc(NC(C)=O)cc3)cs2)ccn1 as the compound, how does the IC50 read?
**A.** 7.1 µM

**Q.** For CCCc1cc(-c2nc(-c3ccc(NS(C)(=O)=O)cc3)cs2)ccn1, which IC50 is on record?
**A.** 0.7 µM

**Q.** With CCCc1cc(-c2nc(-c3ccc(NS(=O)(=O)c4cccs4)cc3)cs2)ccn1 as the compound, how does the IC50 read?
**A.** 0.9 µM

**Q.** Which IC50 does the source give for CCCc1cc(-c2nc(-c3ccc(NS(=O)(=O)c4ccc(C)cc4)cc3)cs2)ccn1 here?
**A.** 2.3 µM

**Q.** Which IC50 does the source give for CCCc1cc(-c2nc(-c3ccc(NC(=O)OC(C)(C)C)cc3)cs2)ccn1 here?
**A.** 1.9 µM

**Q.** For CCCc1cc(-c2nc(-c3ccc(OC(=O)c4ccccc4)cc3)cs2)ccn1, which IC50 is on record?
**A.** 7.7 µM

**Q.** With C[C@H](CCCC(C)(C)O)[C@H]1CC[C@H]2[C@@H]3CC=C4C[C@@H](O)CC[C@]4(C)[C@H]3CC[C@]12C [(1S,2R,5S,10S,11S,14R,15R)-14-[(2R)-6-hydroxy-6-methylheptan-2-yl]-2,15-dimethyltetracyclo[8.7.0.0^{2,7}.0^{11,15}]heptadec-7-en-5-ol] as the compound, how does the IC50 read?
**A.** 0.3 µM

**Q.** For CCCc1cc(-c2nc(-c3ccc(Cl)cc3)cs2)ccn1 [SMR000177579], which IC50 is on record?
**A.** 10.7 µM

**Q.** For CCCc1cc(-c2nc(-c3ccc(C)cc3)cs2)ccn1 [SMR000221636], which IC50 is on record?
**A.** 5.6 µM
